Data: patent US20120058133A1, “INHIBITION OF TRNA SYNTHETASES AND THERAPEUTIC APPLICATIONS THEREOF” (President and Fellows of Harvard College, priority 2009, published 2012)
Entries after “also recorded” stand apart in the source; their conditions may differ.

Tests used:
[1] = test system: SV-MES mesangial cells; experiment: AAR activation in SV-MES mesangial (fibroblastic) cells; assay type: cell-based; settings: 2 hours
Procedure: FIG. 11. HF induces a stress response in fibroblasts. SV-MES mesangial cells were stimulated for 2 hours with DMSO, 20 nM MAZ1310, or 20 nM HF. Whole cell lysates were analyzed for expression of phosphorylated or total eIF2α by western blotting.
Duplicate cell samples are shown. […] Activated GCN2 phosphorylates eif2alpha at Ser 51; therefore, this is an expected downstream outcome of AAR activation.

[2] = test system: translation in rabbit reticulocyte lysate; experiment: In vitro translation in rabbit reticulocyte lysate (RRL); assay type: biochemical; settings: for rescue of translation inhibition by added amino acids: excess amino acids (1-2 mM)
Procedure: FIG. 23. HF and FF inhibit prolyl tRNA synthetase activity in vitro. […] Rabbit reticulocyte lysate (RRL) was incubated with luciferase mRNA and translation quantitated in a luminescence assay. A high concentration of mixed or individual amino acids (1 mM of each) was added to rescue translational inhibition. AA Mix 1: Asn, Arg, Val, Glu, Gly; AA Mix2: Lys, Ile, Tyr, Asp, Trp; Mix 3: His, Met, Leu, Ala, Thr; Mix 4: Ser, Phe, Pro, Gln. […] Note log scale of y axis.
Inhibitors (FIG. 22) and proline were assayed as described in FIG. 23A. Note log scale at Y axis. Error bars reflect standard deviation of triplicate determinations.
Short myc-tagged polypeptides of identical sequence (see Example 9, “Materials and Methods”) with the exception that NoPro lacks proline, while ProPro contains a proline dipeptide, were translated in RRL in the presence of indicated inhibitors. Translation was examined by anti-myc Western blot.
Note log scale of Y axis.
Translation in vitro was performed using rabbit reticulocyte lysates and luciferase mRNA as template. Translation was measured as arbitrary units of luciferase activity using a luminometer based luminescence assay. Log scale presentation of background-subtracted data is shown.

[3] = test system: dermal ECM deposition; settings: Pines et al. 2003; cited from earlier work
[4] = test system: STAT3 phosphorylation; experiment: STAT3 phosphorylation in developing Th17 cells; assay type: cell-based, mouse
Procedure: FIG. 3. […] FIG. 3A is a set of representative histograms displaying the kinetics of STAT3 phosphorylation in developing Th17 cells treated with or without HF. Resting naïve T cells (grey, shaded peak), T cells activated in the presence of TGFβ plus IL-6 (TGFβ/IL-6) treated with 10 nM MAZ1310 (light gray trace), 5 nM HF (medium gray trace), or 10 nM HF (dark gray trace). T cells were fixed at the indicated times and intracellular phospho-STAT3 staining was performed.
FIG. 3B depicts western blot analysis of CD4^+ CD25^− T cells treated with 10 nM HF or 10 nM MAZ1310 and activated in the presence or absence of TGFβ plus IL-6. Whole cell lysates were generated at the indicated times following activation.
All cell surface staining was performed in FACS buffer (PBS/2% FBS/0.1% NaN3) and antibodies were incubated with cells on ice for 20-30 minutes. Cells were washed with FACS buffer and fixed with FACS buffer plus 1% paraformaldehyde prior to data acquisition. For phospho-STAT3 intracellular staining, stimulated T cells cultured with or without TGFβ plus IL-6 for the indicated times were harvested on ice and fixed in PBS plus 2% paraformaldehyde for 10 minutes at 37° C. Fixed cells were washed twice with staining buffer (PBS/1% BSA/0.1% NaN3) and then permeabilized with perm buffer III (BD Pharmingen) on ice for 30 minutes. Cells were then washed twice with staining buffer and PE-conjugated anti-STAT3 (pY705) (BD Pharmingen) was added per the manufacturer's instructions and incubated with cells at room temperature for 45-60 minutes. Cells were then washed and stored in staining buffer prior to data acquisition. Foxp3 intracellular staining was performed using a Foxp3 intracellular staining kit (eBioscience—San Diego, Calif.) in accordance with the manufacturer's instructions. […] All FACS data was acquired on a FACSCalibur flow cytometer (BD Pharmingen) and analyzed using FlowJo software (Treestar, Inc.—Ashland, Oreg.). […]

[5] = test system: amino acid starvation response in splenocytes; experiment: In vivo AAR activation in splenocytes of HF-injected mice; design: species or system mouse; settings: i.p. injection, 6 hours
Procedure: FIG. 20F, left panel, depicts western blot analysis of protein from cells of wild-type mice injected i.p. with vehicle (DMSO) or […] HF. Spleens were harvested 6 hours post injection, red blood cells were removed by NH4Cl lysis buffer and immunoblotting for phosphorylated or total eIF2a was performed on whole cell extracts. FIG. 20F, right panel is a graph depicting levels of AAR-associated gene expression (Asns, Gpt2, eIF4Ebp1) analyzed by quantitative real-time PCR using cDNA from splenocytes of mice treated with DMSO or HF as above. Expression of AAR-associated transcripts were normalized to Hprt levels and data are presented as mean relative expression from duplicate samples ±SD. All data represent 2-3 similar experiments.

In the case of `O=C(CC1NCCCC1O)Cn1cnc2cc(Br)c(Cl)cc2c1=O` (racemic) [HF, halofuginone], the “eIF2α phosphorylation in cultured fibroblasts” value ([1]; 20 nM HF) is reported as “increased eIF2α phosphorylation”, the “GCN2 Thr898 phosphorylation” value ([1]; 20 nM) is reported as “activation of GCN2 phosphorylation” and the “translation of NoPro polypeptide” value [2] is reported as “had no effect on the translation of NoPro”. For the same molecule, the “translation of ProPro polypeptide” value [2] was “prevented translation of ProPro”, the “rescue of translation inhibition by added purified EPRS” value ([2]; 80 ng or 0.5 μg EPRS) was “rescued HF/FF-inhibition of protein translation” and the “translation of luciferase mRNA” value ([2]; 400 nM halofuginone) was “inhibition of translation”. The “eIF2-alpha phosphorylation in RRL” value ([2]; data not shown) was “no increase”, the “rescue of translation inhibition by added amino acids” value [2] was “only proline could restore translation” and the “rescue of translation inhibition by added amino acids” value ([2]; listed as halofuginone) was “rescues inhibition of translation by halofuginone”. The “translation of luciferase RNA in RRL” value ([2]; standard amino acid mix) was “inhibited the translation of luciferase RNA”, the “dermal ECM deposition” value [3] was “potently reduces dermal extracellular matrix (ECM) deposition; also recorded: reduces excess dermal ECM deposition” and the “time post activation at which STAT3 phosphorylation begins to decrease” value [4] was “around 12 hours”. For the same molecule, the “STAT3 activation during the first 6 hours of Th17 differentiation” value ([4]; 5-10 nM HF) was “did not interfere with STAT3 activation”, the “maintenance of STAT3 phosphorylation” value ([4]; 5-10 nM HF) was “decreased the maintenance of STAT3 phosphorylation” and the “eIF2α phosphorylation and AAR-associated transcripts in splenocytes ex vivo” value [5] was “increased eIF2α phosphorylation and expression of AAR-associated transcripts”.
